System: cs-oxidant-induced albumin oxidation
Experiment: Protection of cs-oxidant-induced albumin oxidation by chemical agents
Type: biochemical, bovine
Settings: for inhibition of BSA oxidation: concentration ranging between 500 μM and 1 mM
Procedure: The incubation system contained 1 mg BSA and 50 μl of cs solution or its equivalent amounts obtained at different stages of purification in a final volume of 200 μl of 50 mM potassium phosphate buffer, pH 7.4. The incubation was carried out at 37° C. for 1 hour. Protein carbonyl was measured by reaction with 2,4-dinitrophenyl hydrazine (DNPH) following the method of Levine et al (Methods Enzymol. 186: 464-478, 1990) similar to that done before in our laboratory (Panda et al., Free Radic. Biol. & Med. 27: 1064-1079, 1999). […] To this washed pellet was then added 500 μl of 10 mM DNPH solution in 2M HCl and incubated at 37° C. for 1 h with occasional vortexing. Thereafter, the protein was again precipitated with 500 μl of cold 20% trichloroacetic acid solution and the pellet was first washed with 500 μl of 10% trichloroacetic acid solution followed by three successive washes with 1 ml of a mixture of ethanol: ethyl acetate (1:1, v/v). Finally, the washed precipitate was dissolved in 1 ml of 6M guanidium hydrochloride (pH 2.3) and the absorbance was measured at 390 nm using a double beam Hitachi spectrophotometer model U 3020 against a reagent blank of 2M HCl. The results were expressed as n moles of phenylhydrazones formed per milligram protein using a molar extinction coefficient of 22,000.
The chemical compounds/agents include, besides ascorbic acid, tartaric acid, citric acid, oxalic cid, glutathione, tea extract and individual components of tea (Table. 4).
The incubation system and carbonyl estimation are described in the text.

Molecule: O=C1O[C@H]([C@@H](O)CO)C(O)=C1O [Ascorbic acid]
- % Protection (agent 100 μM): 76%
- % Protection (agent 100 μM, listed as ascorbic acid): up to 76%

Molecule: O=C(O)CC(O)(CC(=O)O)C(=O)O [Citric acid]
- % Protection (agent 500 μM): 67%
- % Protection (agent 1 mM): 75%
- inhibition of BSA oxidation: up to 75%

Molecule: Oc1cc(O)c2c(c1)O[C@H](c1cc(O)c(O)c(O)c1)[C@H](O)C2 [Epigallocatechin]
- % Protection (agent 140 μg): 95%
- % Protection (agent 140 μg, listed as epigallocatechin): up to 95%

Molecule: N[C@@H](CCC(=O)N[C@@H](CS)C(=O)NCC(=O)O)C(=O)O [Glutathione]
- % Protection (agent 1 mM): 37%
- % Protection (agent 1 mM, listed as glutanthione): up to 37%

Molecule: N[C@@H](Cc1c[nH]cn1)C(=O)O [Histidine]
- % Protection (agent 1 mM): 67%
- % Protection (agent 1 mM, listed as histidine): up to 67%

Molecule: NCCCC[C@H](N)C(=O)O [Lysine]
- % Protection (agent 1 mM): 35%
- % Protection (agent 1 mM, listed as lysine): up to 35%

Molecule: O=C(O)C(=O)O [Oxalic acid]
- % Protection (agent 500 μM): 53%
- % Protection (agent 500 μM, listed as oxalic acid): up to 53%

Molecule: O=C(O)CCC(=O)O [Succinic acid]
- % Protection (agent 1 μM (so in the source)): 60%
- % Protection (agent 1 mM): 60%
- % Protection (agent 1 mM, listed as succinic acid): up to 60%

Molecule: O=C(O)C(O)C(O)C(=O)O (centres unmarked) [Tartaric acid]
- % Protection (agent 500 μM): 67%
- % Protection (agent 1 mM): 75%
- inhibition of BSA oxidation: up to 75%

Molecule: Catechin
- % Protection (agent 750 μg): 54%
- % Protection (agent 750 μg, listed as catechin): up to 54%

Source: patent US6929012B2, “Process for the isolation of a major harmful oxidant from cigarette smoke” (Council of Scientific and Industrial Research, priority 2001, dated 2005)
